{"source": "patent US20100331927A1", "about": "“FEEDBACK-CONTROLLED METHOD FOR DELIVERING PHOTODYNAMIC THERAPY AND RELATED INSTRUMENTATION” (priority 2007, published 2010)", "origin": "cited, not measured here", "tested_on": "rat bladder tumor model", "conditions": "60s/60s light interval/dark interval"}
{"smiles": "C=Cc1c(C)c2cc3nc(cc4[nH]c(cc5nc(cc1[nH]2)C(C)=C5CCC(=O)O)c(CCC(=O)OC)c4C)C1(C)C3=CC=C(C(=O)OC)C1C(=O)OC", "note": "(stereo not shown) [BPD-MA]", "values": [{"measurement": "improvement of phototoxicity by light fractionation", "result": 1000, "unit": "fold"}]}
